{
  "source": "ChEMBL document CHEMBL1201862",
  "about": "“PubChem BioAssay data set” (2004)",
  "key": {"HEK293 [1]": {"tested_on": "HEK293", "assay": "cells", "type": "functional, cell-based", "conditions": "Homo sapiens"}, "HEK293 [2]": {"tested_on": "HEK293", "assay": "NOD2 signaling inhibitors in MDP-stimulated cells, cell-based, uHTS, luminescence (AID 2001)", "type": "functional", "conditions": "Homo sapiens"}, "HEK293 [3]": {"tested_on": "HEK293", "assay": "inhibition of NOD1-driven NF-kB reporter – cell-based, luminescence, uHTS, primary screen (AID 1578)", "type": "functional", "conditions": "Homo sapiens"}, "HEK293 [4]": {"tested_on": "HEK293", "assay": "cells", "type": "functional, cell-based", "conditions": "Homo sapiens", "remark": "listed apart in the source"}, "[5]": {"molecular_target": "Peroxisome proliferator-activated receptor gamma/Nuclear receptor coactivator 2 (Homo sapiens, UniProt P37231)", "sequence (P37231 whole entry)": "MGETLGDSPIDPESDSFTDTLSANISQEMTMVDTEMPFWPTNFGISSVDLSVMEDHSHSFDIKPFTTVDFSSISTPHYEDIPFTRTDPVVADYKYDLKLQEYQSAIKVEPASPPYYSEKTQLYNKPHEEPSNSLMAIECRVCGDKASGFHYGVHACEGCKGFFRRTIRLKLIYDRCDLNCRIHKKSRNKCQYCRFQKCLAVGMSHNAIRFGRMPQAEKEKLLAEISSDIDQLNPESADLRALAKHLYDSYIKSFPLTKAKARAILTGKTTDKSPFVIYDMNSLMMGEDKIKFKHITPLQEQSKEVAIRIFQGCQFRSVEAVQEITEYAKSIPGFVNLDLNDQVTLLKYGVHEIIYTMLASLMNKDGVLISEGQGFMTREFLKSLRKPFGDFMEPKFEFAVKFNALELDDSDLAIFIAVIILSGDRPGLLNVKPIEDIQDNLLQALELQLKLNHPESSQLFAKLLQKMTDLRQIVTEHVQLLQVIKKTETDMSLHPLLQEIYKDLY", "sequence (Q15596 whole entry, further chain)": "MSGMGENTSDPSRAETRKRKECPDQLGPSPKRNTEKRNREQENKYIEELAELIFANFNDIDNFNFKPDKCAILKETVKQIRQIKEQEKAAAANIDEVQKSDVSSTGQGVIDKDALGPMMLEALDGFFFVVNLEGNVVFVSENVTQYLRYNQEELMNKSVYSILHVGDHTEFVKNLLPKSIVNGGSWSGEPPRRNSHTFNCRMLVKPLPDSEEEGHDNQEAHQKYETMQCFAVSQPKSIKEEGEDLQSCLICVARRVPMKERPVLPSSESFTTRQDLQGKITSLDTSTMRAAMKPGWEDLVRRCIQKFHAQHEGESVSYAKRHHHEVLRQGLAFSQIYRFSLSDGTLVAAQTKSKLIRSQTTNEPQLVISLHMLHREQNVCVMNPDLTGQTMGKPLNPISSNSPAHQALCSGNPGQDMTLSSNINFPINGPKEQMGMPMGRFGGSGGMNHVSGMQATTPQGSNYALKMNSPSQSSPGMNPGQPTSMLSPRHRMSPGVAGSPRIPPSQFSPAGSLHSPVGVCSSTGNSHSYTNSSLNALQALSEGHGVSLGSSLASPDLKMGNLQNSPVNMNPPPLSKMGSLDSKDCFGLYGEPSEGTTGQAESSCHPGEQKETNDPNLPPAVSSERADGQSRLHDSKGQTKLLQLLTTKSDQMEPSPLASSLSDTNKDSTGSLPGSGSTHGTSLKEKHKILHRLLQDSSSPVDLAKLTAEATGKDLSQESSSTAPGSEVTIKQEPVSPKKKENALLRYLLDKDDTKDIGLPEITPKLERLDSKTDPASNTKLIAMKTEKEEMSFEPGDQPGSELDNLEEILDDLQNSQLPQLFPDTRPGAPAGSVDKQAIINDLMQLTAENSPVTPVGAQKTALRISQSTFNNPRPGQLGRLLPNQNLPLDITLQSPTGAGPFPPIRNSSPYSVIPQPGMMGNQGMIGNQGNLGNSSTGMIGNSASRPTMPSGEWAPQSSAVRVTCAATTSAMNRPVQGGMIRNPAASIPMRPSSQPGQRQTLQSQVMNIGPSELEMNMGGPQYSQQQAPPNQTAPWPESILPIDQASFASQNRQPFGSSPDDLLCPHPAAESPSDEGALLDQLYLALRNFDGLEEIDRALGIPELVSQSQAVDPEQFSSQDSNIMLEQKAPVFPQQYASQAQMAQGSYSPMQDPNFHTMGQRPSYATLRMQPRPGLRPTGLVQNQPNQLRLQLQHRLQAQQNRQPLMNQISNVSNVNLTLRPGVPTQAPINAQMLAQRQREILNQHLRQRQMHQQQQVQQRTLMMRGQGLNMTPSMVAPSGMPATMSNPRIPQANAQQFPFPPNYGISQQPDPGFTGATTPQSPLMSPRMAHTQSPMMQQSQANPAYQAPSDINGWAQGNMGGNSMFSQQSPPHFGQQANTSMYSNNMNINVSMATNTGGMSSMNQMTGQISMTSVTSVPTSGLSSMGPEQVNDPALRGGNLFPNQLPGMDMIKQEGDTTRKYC", "assay": "(§1) TR-FRET dose response biochemical High Throughput Screening assay for agonists of the steroid receptor coactivator 2 (SRC-2) recruitment by the peroxisome proliferator-activated receptor gamma (PPAR gamma): non-selective agonists. [Related pubchem assays: 1297, 1032 ]", "type": "functional"}, "[6]": {"molecular_target": "Peroxisome proliferator-activated receptor gamma/Nuclear receptor coactivator 3 (Homo sapiens, UniProt P37231)", "assay": "as §1, with “3 (SRC-3)” for “2 (SRC-2)”, “1301 (Confirmation screen.), 1048 (Primary screen.)]” for “1297, 1032 ]”", "type": "functional"}, "[7]": {"molecular_target": "Peroxisome proliferator-activated receptor gamma/Nuclear receptor coactivator 1 (Homo sapiens, UniProt P37231)", "sequence (P37231 whole entry)": "as the sequence (P37231 whole entry) above", "sequence (Q15788 whole entry, further chain)": "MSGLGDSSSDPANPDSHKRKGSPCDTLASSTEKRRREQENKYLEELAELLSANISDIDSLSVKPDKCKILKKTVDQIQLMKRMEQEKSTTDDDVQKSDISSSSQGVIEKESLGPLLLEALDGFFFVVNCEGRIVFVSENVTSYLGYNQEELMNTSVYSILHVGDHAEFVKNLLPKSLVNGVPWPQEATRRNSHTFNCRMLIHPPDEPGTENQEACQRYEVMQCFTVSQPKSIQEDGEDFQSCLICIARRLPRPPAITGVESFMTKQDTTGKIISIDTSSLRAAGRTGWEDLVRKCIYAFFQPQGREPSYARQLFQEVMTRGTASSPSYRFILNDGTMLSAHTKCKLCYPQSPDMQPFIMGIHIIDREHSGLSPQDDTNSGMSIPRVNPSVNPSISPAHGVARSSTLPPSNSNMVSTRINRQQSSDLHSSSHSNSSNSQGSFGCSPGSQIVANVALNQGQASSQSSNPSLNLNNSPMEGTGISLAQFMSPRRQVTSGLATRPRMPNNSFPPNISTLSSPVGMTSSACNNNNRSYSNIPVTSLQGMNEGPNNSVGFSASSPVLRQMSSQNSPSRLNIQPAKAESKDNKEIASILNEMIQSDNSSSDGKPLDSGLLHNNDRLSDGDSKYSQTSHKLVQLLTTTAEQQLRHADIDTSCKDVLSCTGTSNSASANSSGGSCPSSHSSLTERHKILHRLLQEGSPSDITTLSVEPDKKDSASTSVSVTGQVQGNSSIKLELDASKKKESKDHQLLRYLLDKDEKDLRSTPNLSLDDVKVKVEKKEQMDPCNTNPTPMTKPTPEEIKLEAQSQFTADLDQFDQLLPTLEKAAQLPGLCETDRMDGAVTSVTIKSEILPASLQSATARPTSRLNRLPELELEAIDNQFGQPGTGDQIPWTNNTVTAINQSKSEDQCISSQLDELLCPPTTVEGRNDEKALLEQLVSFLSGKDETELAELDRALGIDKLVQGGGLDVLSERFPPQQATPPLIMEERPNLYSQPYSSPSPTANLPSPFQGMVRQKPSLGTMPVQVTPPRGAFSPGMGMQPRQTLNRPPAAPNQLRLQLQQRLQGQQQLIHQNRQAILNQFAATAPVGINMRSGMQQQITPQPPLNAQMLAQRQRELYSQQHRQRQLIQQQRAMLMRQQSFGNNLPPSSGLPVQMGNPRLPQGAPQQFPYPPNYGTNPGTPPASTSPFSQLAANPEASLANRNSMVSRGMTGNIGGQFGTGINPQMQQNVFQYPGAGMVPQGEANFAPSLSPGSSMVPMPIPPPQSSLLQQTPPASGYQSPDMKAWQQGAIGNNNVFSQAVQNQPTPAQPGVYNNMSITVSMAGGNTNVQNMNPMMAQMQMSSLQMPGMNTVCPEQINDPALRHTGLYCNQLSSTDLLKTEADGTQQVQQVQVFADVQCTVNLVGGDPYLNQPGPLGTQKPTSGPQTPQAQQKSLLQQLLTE", "assay": "as §1, with “1 (SRC-1)” for “2 (SRC-2)”, “assays (depositor defined):AID1300, AID1808, AID504735, AID631]” for “assays: 1297, 1032 ]”", "type": "protein assay"}, "Coagulation factor XII": {"molecular_target": "T1, Coagulation factor XII (Homo sapiens, UniProt P00748)", "T1 sequence (P00748 whole entry)": "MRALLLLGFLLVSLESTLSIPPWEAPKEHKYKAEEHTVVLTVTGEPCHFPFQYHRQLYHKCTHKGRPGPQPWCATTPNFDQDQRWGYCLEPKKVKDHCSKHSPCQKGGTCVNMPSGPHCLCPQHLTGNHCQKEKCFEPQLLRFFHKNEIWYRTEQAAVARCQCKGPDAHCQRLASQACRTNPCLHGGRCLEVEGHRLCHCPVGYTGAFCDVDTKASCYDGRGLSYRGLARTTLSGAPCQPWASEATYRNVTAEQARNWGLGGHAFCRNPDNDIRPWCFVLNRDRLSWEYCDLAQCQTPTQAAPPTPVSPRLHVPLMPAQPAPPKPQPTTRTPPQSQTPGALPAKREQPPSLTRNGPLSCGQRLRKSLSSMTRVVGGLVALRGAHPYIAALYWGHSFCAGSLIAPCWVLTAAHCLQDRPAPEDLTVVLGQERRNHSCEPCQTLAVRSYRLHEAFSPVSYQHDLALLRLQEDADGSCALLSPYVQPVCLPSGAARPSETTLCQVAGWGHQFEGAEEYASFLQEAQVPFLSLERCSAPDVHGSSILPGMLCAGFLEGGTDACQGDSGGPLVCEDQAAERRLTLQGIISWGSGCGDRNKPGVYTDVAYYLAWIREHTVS", "type": "functional"}, "[8]": {"assay": "Luminescence Cell-Based Dose Retest to Confirm Inhibitors of Cancer Stem Cells. [Related pubchem assays (depositor defined):AID2717, AID2721]", "type": "functional", "conditions": "Homo sapiens"}, "[9]": {"assay": "viability loss of HMLE_sh_eGFP cells – cell-based, luminescence, counter-screen for HMLE_sh_ECad selective toxicity project, dose response (AID 463074)", "type": "functional, Homo sapiens"}, "[10]": {"molecular_target": "Dual specificity tyrosine-phosphorylation-regulated kinase 1A (Rattus norvegicus, UniProt Q63470)", "type": "biochemical, Homo sapiens"}, "Large T antigen": {"molecular_target": "Large T antigen (Simian virus 40, UniProt P03070)", "type": "functional, Betapolyomavirus macacae"}, "Prothrombin": {"molecular_target": "Prothrombin (Bos taurus, UniProt P00735)", "assay": "thrombin protease inhibitors – biochemical, fluorescence polarization, uHTS hits, dose response (AID 602369)", "type": "functional"}, "[11]": {"molecular_target": "72 kDa type IV collagenase (Homo sapiens, UniProt P08253)", "sequence (P08253 whole entry)": "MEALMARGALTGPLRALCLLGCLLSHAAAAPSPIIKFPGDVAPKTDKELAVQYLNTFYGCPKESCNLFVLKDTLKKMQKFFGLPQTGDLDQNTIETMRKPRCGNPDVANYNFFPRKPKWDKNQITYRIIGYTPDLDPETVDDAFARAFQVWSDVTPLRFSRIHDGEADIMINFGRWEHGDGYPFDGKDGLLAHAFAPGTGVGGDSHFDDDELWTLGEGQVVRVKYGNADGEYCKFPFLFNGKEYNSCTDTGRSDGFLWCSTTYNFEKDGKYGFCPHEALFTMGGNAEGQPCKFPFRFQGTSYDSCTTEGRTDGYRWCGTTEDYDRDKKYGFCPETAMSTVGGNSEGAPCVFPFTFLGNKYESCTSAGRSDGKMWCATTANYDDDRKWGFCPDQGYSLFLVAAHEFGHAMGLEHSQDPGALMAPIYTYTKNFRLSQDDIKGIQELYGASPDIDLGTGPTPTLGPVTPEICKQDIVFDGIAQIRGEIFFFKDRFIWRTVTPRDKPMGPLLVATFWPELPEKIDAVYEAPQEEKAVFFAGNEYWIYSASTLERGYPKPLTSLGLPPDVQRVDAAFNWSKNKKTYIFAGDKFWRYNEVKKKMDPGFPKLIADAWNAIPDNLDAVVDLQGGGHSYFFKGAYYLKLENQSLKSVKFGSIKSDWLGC", "assay": "Dose Response validation of uHTS RPN11 inhibitor hits using a MMP-2 Fluorescence assay.", "type": "functional"}, "[12]": {"molecular_target": "26S proteasome non-ATPase regulatory subunit 14 (Homo sapiens, UniProt O00487)", "sequence (O00487 whole entry)": "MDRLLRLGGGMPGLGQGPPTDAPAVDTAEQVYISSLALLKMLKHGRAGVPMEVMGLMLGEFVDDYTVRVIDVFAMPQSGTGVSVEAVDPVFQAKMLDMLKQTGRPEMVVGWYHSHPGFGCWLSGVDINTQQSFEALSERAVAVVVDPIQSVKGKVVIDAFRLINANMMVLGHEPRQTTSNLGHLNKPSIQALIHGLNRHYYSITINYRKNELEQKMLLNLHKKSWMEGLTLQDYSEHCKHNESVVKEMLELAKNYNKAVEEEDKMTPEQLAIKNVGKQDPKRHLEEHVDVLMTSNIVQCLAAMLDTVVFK", "assay": "inhibition of proteasome subunit RPN11 – biochemical, fluorescence polarization, uHTS hits, confirmation (AID 602368)", "type": "functional"}},
  "note": "The source made the active and inactive calls.",
  "data": [
    {"smiles": "CN(c1ccccc1)S(=O)(=O)c1cc(C(=O)Nc2nc3ccccc3[nH]2)ccc1Cl", "values": [
      {"measurement": "IC50", "setting": "HEK293 [1]", "result": "> 20 µM (inactive)"},
      {"measurement": "IC50", "setting": "HEK293 [2]", "result": "6.72 µM (active)"},
      {"measurement": "EC50", "setting": "HEK293 [3]", "result": "8.46 µM (active)"},
      {"measurement": "IC50", "setting": "HEK293 [4]", "result": "5.37 µM (active)"}
    ]},
    {"smiles": "CC(Sc1nnc(-c2ccc(Cl)cc2Cl)n1Cc1ccccc1)C(=O)Nc1nccs1", "note": "(stereo unspecified)", "values": [
      {"measurement": "EC50", "setting": "[5]", "result": "> 79.4 µM (not active)"},
      {"measurement": "EC50", "setting": "[6]", "result": "17.6 µM (not active)"},
      {"measurement": "EC50", "setting": "[7]", "result": "10.6 µM (inactive)"}
    ]},
    {"smiles": "COCc1c(C(=O)OCc2nc(N)nc(Nc3ccccc3C)n2)oc2ccccc12", "values": [
      {"measurement": "IC50", "setting": "Coagulation factor XII", "result": "> 50 µM (inactive)"}
    ]},
    {"smiles": "CC1=C(C(=O)Nc2ccccc2)C(c2ccco2)C(C#N)=C(SCc2ccccc2)N1", "note": "(stereo unspecified)", "values": [
      {"measurement": "AC50", "setting": "[8]", "result": "17.5 µM (active)"},
      {"measurement": "AC50", "setting": "[9]", "result": "28.4 µM (active)"}
    ]},
    {"smiles": "Oc1ccc2c(c1)oc1cc(O)ccc12", "values": [
      {"measurement": "AC50", "setting": "[10]", "result": "0.754 µM (active)"},
      {"measurement": "IC50", "setting": "Large T antigen", "result": "3.5 µM (active)"}
    ]},
    {"smiles": "COc1ccc(-c2cc(C(=O)c3c(N)n(C)c(=O)n(C)c3=O)c3ccccc3n2)cc1OC", "values": [
      {"measurement": "IC50", "setting": "Coagulation factor XII", "result": "> 50 µM (inactive)"}
    ]},
    {"smiles": "Cc1cc(C)cc(NC(=O)Cn2nnc(C(=O)NCc3ccc4c(c3)OCO4)c2N)c1", "values": [
      {"measurement": "IC50", "setting": "Prothrombin", "result": "72.2 µM (active)"},
      {"measurement": "IC50", "setting": "[11]", "result": "> 100 µM (inactive)"},
      {"measurement": "IC50", "setting": "[12]", "result": "22.9 µM (active)"}
    ]},
    {"smiles": "CCOC(=O)C1CCCN(CC(=O)Nc2c(C(=O)OC)[nH]c3ccc(Br)cc23)C1", "note": "(stereo unspecified)", "values": [
      {"measurement": "EC50", "setting": "[5]", "result": "> 26.5 µM (not active)"},
      {"measurement": "EC50", "setting": "[6]", "result": "> 79.4 µM (not active)"},
      {"measurement": "EC50", "setting": "[7]", "result": "> 79.4 µM (inactive)"}
    ]},
    {"smiles": "O=C(NNc1nc(-c2ccc(Cl)cc2)cs1)c1ccco1", "values": [
      {"measurement": "AC50", "setting": "[8]", "result": "1.8 µM (active)"},
      {"measurement": "AC50", "setting": "[9]", "result": "87.8 µM (active)"}
    ]}
  ]
}
